# Data published in patent publication US11318190B2, “Methods and compositions for treating liver disease” (UNITED STATES GOVERNMENT AS REPRESENTED BY THE DEPARTMENT …, priority 2017, dated 2022).
# Legend:
# large IMCLs = assay: Large IMCLs treated with secretin with/without LY2109761, or with TGF-β1 (Example 2); assay type: cell-based, mouse; details: secretin 10 nM, 12 hr
# Text: Cholangiocytes were obtained by immunoaffinity separation as described herein above, using a monoclonal antibody (a gift from Dr. R. Faris, Brown University, Providence, R.I.) that is expressed by all intrahepatic cholangiocytes. HSCs from the selected groups of mice were isolated by LCM as described previously in Wu, N et al., The secretin/secretin receptor axis modulates liver fibrosis through changes in transforming growth factor-beta1 biliary secretion in mice, Hepatology (Baltimore, Md.) 64(3):865-879 (2016). Briefly, frozen liver sections (n=3, 10 μm thick) were incubated overnight with an anti-desmin (a marker of stellate cells) antibody. Then, desmin-positive cells were dissected from the slides using a LCM system Leica LMD7000 (Buffalo Grove, Ill.) and were collected before RNA extraction with the Arcturus PicoPure RNA isolation kit (Thermo Fisher Scientific CO, Mountain View, Calif.). The in vitro studies were performed in: (I) immortalized murine cholangiocyte lines derived from large cholangiocytes lining large ducts (IMCLs); and (ii) human hepatic stellate cell lines (HHSteCs; ScienCell Research Laboratories, Carlsbad, Calif.).
# (§1) WT mice were treated for 1 wk with saline or secretin (Sct; 2.5 nmoles/kg body weight per day) before collecting cholangiocytes, HSCs and cholangiocyte supernatants. The levels of TGF-β1 were measured in short-term (6-hour) cultures of cholangiocytes by ELISA kits. Subsequently, we measured: (i) liver fibrosis by immunofluorescence for Col1a1 in liver sections and real-time PCR for TGF-β1, TFG-β1R, Col1a1, α-SMA and Fn1 in cholangiocytes and HSCs; and (ii) cellular senescence by immunofluorescence in liver sections for p16 and real-time PCR for p16 and p21 in cholangiocytes and HSC.
# (§2) Biliary supernatants were obtained from normal and BDL WT mice and Sct^−/−, SR^−/− and Sct^−/−/SR^−/− BDL mice as well as normal WT mice treated with saline or secretin. HHSteCs were incubated with the aforementioned biliary supernatants (containing different levels of TGF-β1) for 24 hr (in the absence or presence of LY2109761) before measuring the expression of senescence and fibrosis genes by real-time PCR. Furthermore, HHSteCs were incubated with the supernatant of large IMCLs treated for 0.2% bovine serum albumin (basal) or secretin (10 nM) with/without LY2109761 for 6 hr before measuring the mRNA expression of fibrosis and senescence genes. To provide direct evidence that TGF-β1 directly modulates fibrosis and senescence of IMCLs and HHSteCs, these cells were stimulated with TGF-β1 (10 nM) for 24 hr before measuring the expression of PCNA as well as fibrosis and senescence genes by real-time PCR.
# HHSteCs = HHSteCs incubated with biliary/IMCL supernatants with/without LY2109761, or with TGF-β1 (Example 2); assay type: cell-based, human
# Description: as §2
# [1] = system: human hepatic stellate cells (hHSC); assay: hHSC activation by cholangiocyte supernatants from treated mice (qPCR); assay type: cell-based
# Description: In vitro experiments were performed in human hepatic stellate cells (hHSC) that were purchased from ScienCell Research Laboratories (Carlsbad, Calif.) that were maintained in standard conditions.
# […] Activation of hHSCs was determined by qPCR for FN-1, TGF-β1, α-SMA, and collagen type-1a (Kennedy, L L et al., Knockout of microRNA-21 reduces biliary hyperplasia and liver fibrosis in cholestatic bile duct ligated mice, Lab Invest 96:1256-1267 (2016)).
# WT mice = WT mice treated 1 wk with secretin: TGF-β1, fibrosis, cellular senescence; assay type: in vivo, mouse
# Description: as §1
# [2] = cholangiocyte supernatant from secretin-treated WT mice, 24 hr
# [3] = supernatant of large IMCLs after secretin 10 nM, 6 hr
substance,measurement,setting,value
secretin [Sct],secretion of TGF-β1 and expression of fibrosis and senescence genes of large IMCLs,large IMCLs,increased
same,expression of fibrosis genes in HHSteCs,HHSteCs; [2],increased expression
same,expression of senescence genes in HHSteCs,HHSteCs; [2],reduced expression
same,expression of senescence genes of HHSteCs,HHSteCs; [3],decreases
same,fibrosis gene expression of HHSteCs,HHSteCs; [3],increases
same,"expression of FN-1, TGF-β1, α-SMA and collagen type-1a in hHSCs",[1]; cholangiocyte supernatants from treated dnTGF-βRII mice 12 wks,further enhanced
same,"expression of FN-1, TGF-β1, α-SMA and collagen type-1a in hHSCs",[1]; cholangiocyte supernatants from treated dnTGF-βRII mice 34 wks,reduced
same,TGF-β1 levels in cholangiocyte supernatant,WT mice; secretin 2.5 nmoles/kg/day 1 wk vs saline,enhanced levels
same,"biliary immunoreactivity of Collagen I and mRNA of TGF-β1, TFG-β1R, Col1a1, α-SMA, Fn1 in cholangiocytes and HSCs",WT mice; secretin 1 wk,increased
same,"p16 immunoreactivity in liver sections, p16 and p21 expression in cholangiocytes",WT mice; secretin 1 wk,enhanced
same,p16 and p21 mRNA expression in isolated HSCs,WT mice; secretin 1 wk vs saline,reduced
